Patent publication US20160303205A1, “Combination Therapies for Lysosomal Storage Diseases” (Washington University, priority 2015, published 2016)
Like-named read-outs stand apart in the source and are kept apart here.

Experiments:
[1] = system: Twitcher mice; assay: Lifespan of Twitcher mice (Kaplan-Meier survival); type: in vivo, mouse
Text: Treated and untreated Twitcher mice as well as untreated controls were used in all experiments. […] The experimental and control animals were randomly assigned to groups for analysis at pre-determined time points (n=3-6 animals per time point) or for life span and behavioral analyses (n=10-14 animals per group). The number of animals per group was based on previous experience with this model and the specific assays as well as power calculations. Quantitative biochemical analyses (GALC activity, psychosine measurements, cytokine/chemokine levels) were performed in duplicate on tissues from 3-6 animals, depending on the assay. Semi-quantitative histomorphometry was performed on at least 3 representative sections per animal from at least 3 animals per group. The photography settings were kept constant for all images. Analysis of variance (ANOVA) was used for group comparisons with Bonferroni correction for pair-wise comparisons. Student's t-test was used to compare the means of two groups. Significant differences in life span were determined by log-rank test. […]
Animals were housed at Washington University School of Medicine. […] Genotypes were determined on postnatal day 1 by PCR as previously described (Sakai et al. 1996 J Neurochem 66:1118-1124; Lin et al., 2005 Molecular Therapy 12:422-430.). […]
Lifespan was recorded as the age of the animal on the date of death or sacrifice. […]

[2] = system: Twitcher mice; details: Twitcher mouse; literature (LeVine 2000; Biswas and LeVine 2002); cited from earlier work

Structure (SMILES): N[C@H]1CONC1=O [L-cycloserine]
- median lifespan [1]: ~57 days
- median lifespan ([1]; untreated Twitcher 39.5 d): 57 days
- lifespan [2]: ~57 days
